Laboratory results: ChEMBL document CHEMBL5113503, “Synthesis and biological evaluation of 4-(4-aminophenyl)-6-methylisoxazolo[3,4-b] pyridin-3-amine covalent inhibitors as potential agents for the treatment of acute myeloid leukemia” (Bioorg Med Chem, 2022)

Tests used:
[1] = test system: MOLM-13; experiment: Antiproliferative activity against human MOLM-13 cells harboring FLT3-ITD mutant assessed as cell growth inhibition measured after 72 hrs by CCK8 assay; conditions: MOLM-13, 72 h
[2] = test system: MV4-11; experiment: Induction of apoptosis in human MV4-11 cells assessed as early apoptotic cells at 0.5 uM measured after 48 hrs by Annexin V-FITC/PI double staining based flow cytometric analysis (reference value: 2.04 %); format: functional
[3] = test system: MV4-11; experiment: Antiproliferative activity against human MV4-11 cells harboring FLT3-ITD mutant assessed as cell growth inhibition measured after 72 hrs by CCK8 assay; conditions: MV4-11, 72 h
[4] = test system: MV4-11; experiment: Induction of apoptosis in human MV4-11 cells assessed as necrotic cells at 0.5 uM measured after 48 hrs by Annexin V-FITC/PI double staining based flow cytometric analysis (reference value: 5.67 %); format: functional
[5] = biological target: Receptor-type tyrosine-protein kinase FLT3 (Homo sapiens) (UniProt P36888); experiment: Inhibition of FLT3 phosphorylation in human MV4-11 cells incubated for 12 hrs by Western blot analysis; format: cell-based; conditions: dose 0.1-2.5 µM, DDE = dose-dependent effect
Sequence of Receptor-type tyrosine-protein kinase FLT3 (Homo sapiens) (P36888 whole entry): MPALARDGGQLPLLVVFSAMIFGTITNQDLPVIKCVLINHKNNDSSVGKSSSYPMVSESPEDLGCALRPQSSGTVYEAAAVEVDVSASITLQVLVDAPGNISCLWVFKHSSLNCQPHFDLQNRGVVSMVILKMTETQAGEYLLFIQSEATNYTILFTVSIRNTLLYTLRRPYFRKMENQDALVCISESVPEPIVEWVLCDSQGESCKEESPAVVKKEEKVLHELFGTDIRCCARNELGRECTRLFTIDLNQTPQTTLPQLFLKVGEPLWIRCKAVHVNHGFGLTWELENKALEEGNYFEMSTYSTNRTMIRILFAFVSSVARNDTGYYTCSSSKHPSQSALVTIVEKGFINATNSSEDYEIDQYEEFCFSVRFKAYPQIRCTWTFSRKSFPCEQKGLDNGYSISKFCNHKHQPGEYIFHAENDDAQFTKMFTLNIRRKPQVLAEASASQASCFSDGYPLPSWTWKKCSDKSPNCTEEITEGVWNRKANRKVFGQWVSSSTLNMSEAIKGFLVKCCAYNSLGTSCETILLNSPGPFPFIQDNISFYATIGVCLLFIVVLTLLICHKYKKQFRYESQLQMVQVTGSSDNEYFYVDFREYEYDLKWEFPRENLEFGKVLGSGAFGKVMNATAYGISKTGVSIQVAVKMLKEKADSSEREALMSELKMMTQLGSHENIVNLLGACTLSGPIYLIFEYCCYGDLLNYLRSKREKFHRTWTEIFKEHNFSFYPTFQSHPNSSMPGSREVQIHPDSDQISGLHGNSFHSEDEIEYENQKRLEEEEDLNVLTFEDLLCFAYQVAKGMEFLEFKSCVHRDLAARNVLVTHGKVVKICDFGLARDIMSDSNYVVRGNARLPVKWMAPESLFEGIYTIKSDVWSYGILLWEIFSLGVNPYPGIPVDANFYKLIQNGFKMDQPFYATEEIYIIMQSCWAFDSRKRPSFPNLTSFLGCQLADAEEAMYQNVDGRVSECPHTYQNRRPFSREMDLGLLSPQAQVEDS

[6] = Cytotoxicity against HUVEC cells assessed as cell growth inhibition measured after 72 hrs by CCK8 assay; format: toxicity, cell-based; conditions: human
[7] = test system: MV4-11; experiment: Induction of apoptosis in human MV4-11 cells assessed as early apoptotic cells at 2.5 uM measured after 48 hrs by Annexin V-FITC/PI double staining based flow cytometric analysis (reference value: 2.04 %); format: functional
[8] = test system: MV4-11; experiment: Induction of apoptosis in human MV4-11 cells assessed as late apoptotic cells at 0.5 uM measured after 48 hrs by Annexin V-FITC/PI double staining based flow cytometric analysis (reference value: 12.03 %); format: functional
[9] = test system: MV4-11; experiment: Induction of cell cycle arrest in human MV4-11 cells assessed as accumulation at G0/G1 phase at 0.1 uM measured after 24 hrs by flow cytometry (reference value: 64.29 %); format: functional
[10] = test system: MV4-11; experiment: Induction of apoptosis in human MV4-11 cells assessed as viable cells at 0.5 uM measured after 48 hrs by Annexin V-FITC/PI double staining based flow cytometric analysis (reference value: 80.26 %); format: functional; conditions: read-out: Activity
[11] = biological target: Serine/threonine-protein kinase AKT (Homo sapiens) (UniProt P31751+Q9Y243+P31749); experiment: Inhibition of AKT phosphorylation in human MV4-11 cells incubated for 12 hrs by Western blot analysis; format: cell-based; conditions: dose 0.1-2.5 µM, DDE = dose-dependent effect
Sequence of Serine/threonine-protein kinase AKT (Homo sapiens) (P31749 whole entry, looked up): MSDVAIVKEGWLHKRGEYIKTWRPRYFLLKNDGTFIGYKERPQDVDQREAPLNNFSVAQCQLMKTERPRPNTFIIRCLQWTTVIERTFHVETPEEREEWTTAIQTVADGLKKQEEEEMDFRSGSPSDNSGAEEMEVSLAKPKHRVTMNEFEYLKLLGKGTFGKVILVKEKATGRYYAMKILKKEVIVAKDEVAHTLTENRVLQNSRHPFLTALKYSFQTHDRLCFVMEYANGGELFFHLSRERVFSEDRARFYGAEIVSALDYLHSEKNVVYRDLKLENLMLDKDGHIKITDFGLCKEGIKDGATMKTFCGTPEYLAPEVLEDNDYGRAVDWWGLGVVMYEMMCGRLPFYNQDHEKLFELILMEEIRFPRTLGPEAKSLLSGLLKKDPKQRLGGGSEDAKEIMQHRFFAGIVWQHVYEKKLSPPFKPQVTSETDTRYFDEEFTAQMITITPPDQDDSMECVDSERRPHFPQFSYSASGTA
Sequence of Serine/threonine-protein kinase AKT (Homo sapiens) (P31751 whole entry, looked up): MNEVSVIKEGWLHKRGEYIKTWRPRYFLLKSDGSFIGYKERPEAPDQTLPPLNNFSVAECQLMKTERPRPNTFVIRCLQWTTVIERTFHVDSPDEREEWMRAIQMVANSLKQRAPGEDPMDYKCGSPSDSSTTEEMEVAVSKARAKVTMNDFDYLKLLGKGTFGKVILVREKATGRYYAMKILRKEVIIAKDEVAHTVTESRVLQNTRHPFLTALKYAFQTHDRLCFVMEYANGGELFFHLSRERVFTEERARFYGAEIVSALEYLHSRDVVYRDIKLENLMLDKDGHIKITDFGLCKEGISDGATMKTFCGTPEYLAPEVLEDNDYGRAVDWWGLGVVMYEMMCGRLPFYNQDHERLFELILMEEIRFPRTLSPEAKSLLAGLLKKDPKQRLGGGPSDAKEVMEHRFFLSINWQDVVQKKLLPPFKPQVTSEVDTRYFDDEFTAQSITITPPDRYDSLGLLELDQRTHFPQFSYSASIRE
Sequence of Serine/threonine-protein kinase AKT (Homo sapiens) (Q9Y243 whole entry, looked up): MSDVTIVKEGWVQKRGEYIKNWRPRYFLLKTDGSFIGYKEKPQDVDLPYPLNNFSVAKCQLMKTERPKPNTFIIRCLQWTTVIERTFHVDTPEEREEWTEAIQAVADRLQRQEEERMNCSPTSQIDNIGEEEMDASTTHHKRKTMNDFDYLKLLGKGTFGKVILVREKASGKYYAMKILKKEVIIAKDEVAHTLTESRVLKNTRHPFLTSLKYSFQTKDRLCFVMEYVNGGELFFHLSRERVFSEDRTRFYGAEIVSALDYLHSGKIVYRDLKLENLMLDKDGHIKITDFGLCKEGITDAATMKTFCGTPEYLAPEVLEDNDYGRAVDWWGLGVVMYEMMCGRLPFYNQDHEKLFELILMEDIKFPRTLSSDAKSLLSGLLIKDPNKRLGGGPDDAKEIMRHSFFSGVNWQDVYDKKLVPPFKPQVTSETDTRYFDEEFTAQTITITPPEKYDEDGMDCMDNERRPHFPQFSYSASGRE

[12] = biological target: T1, Signal transducer and activator of transcription 5A (Homo sapiens) (UniProt P42229); experiment: Inhibition of STAT5 phosphorylation in human MV4-11 cells incubated for 12 hrs by Western blot analysis; format: cell-based; conditions: dose 0.1-2.5 µM, DDE = dose-dependent effect
T1 sequence (whole entry): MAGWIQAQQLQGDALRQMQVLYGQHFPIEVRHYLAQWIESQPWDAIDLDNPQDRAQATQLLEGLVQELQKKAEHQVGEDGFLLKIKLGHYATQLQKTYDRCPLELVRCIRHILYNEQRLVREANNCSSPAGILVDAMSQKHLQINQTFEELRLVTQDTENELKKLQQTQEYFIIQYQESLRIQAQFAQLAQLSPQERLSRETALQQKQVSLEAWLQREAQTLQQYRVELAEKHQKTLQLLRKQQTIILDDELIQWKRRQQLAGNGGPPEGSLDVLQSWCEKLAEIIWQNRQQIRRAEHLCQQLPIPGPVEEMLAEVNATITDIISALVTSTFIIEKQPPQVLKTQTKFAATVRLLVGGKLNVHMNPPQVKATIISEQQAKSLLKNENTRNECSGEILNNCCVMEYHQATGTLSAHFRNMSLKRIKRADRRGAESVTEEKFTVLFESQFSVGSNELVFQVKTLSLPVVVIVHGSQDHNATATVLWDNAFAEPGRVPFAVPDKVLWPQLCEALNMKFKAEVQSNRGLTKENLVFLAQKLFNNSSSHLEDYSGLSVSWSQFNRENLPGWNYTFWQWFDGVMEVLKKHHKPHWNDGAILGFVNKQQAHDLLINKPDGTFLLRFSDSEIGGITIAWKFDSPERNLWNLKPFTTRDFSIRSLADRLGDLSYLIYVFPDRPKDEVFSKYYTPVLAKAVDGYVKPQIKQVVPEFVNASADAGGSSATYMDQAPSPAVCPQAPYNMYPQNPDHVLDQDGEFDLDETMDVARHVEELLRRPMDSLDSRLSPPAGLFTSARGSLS

[13] = test system: MV4-11; experiment: Induction of apoptosis in human MV4-11 cells assessed as viable cells at 0.1 uM measured after 48 hrs by Annexin V-FITC/PI double staining based flow cytometric analysis (reference value: 80.26 %); format: functional; conditions: read-out: Activity
[14] = test system: MV4-11; experiment: Induction of cell cycle arrest in human MV4-11 cells assessed as accumulation at G0/G1 phase at 2.5 uM measured after 24 hrs by flow cytometry (reference value: 64.29 %); format: functional
[15] = test system: MV4-11; experiment: Induction of apoptosis in human MV4-11 cells assessed as viable cells at 2.5 uM measured after 48 hrs by Annexin V-FITC/PI double staining based flow cytometric analysis (reference value: 80.26 %); format: functional; conditions: read-out: Activity
[16] = test system: MV4-11; experiment: Inhibition of ERK phosphorylation in human MV4-11 cells incubated for 12 hrs by Western blot analysis; format: cell-based; conditions: dose 0.1-2.5 µM, DDE = dose-dependent effect
[17] = test system: MV4-11; experiment: Induction of cell cycle arrest in human MV4-11 cells assessed as accumulation at G0/G1 phase at 0.5 uM measured after 24 hrs by flow cytometry (reference value: 64.29 %); format: functional
[18] = test system: MV4-11; experiment: Induction of apoptosis in human MV4-11 cells assessed as necrotic cells at 0.1 uM measured after 48 hrs by Annexin V-FITC/PI double staining based flow cytometric analysis (reference value: 5.67 %); format: functional
[19] = test system: A549; experiment: Antiproliferative activity human A549 cells assessed as cell growth inhibition measured after 72 hrs by CCK8 assay; conditions: A549, 72 h
[20] = test system: MV4-11; experiment: Induction of apoptosis in human MV4-11 cells assessed as necrotic cells at 2.5 uM measured after 48 hrs by Annexin V-FITC/PI double staining based flow cytometric analysis (reference value: 5.67 %); format: functional
[21] = test system: MV4-11; experiment: Induction of apoptosis in human MV4-11 cells assessed as late apoptotic cells at 0.1 uM measured after 48 hrs by Annexin V-FITC/PI double staining based flow cytometric analysis (reference value: 12.03 %); format: functional
[22] = test system: HL-60; experiment: Antiproliferative activity against human HL-60 cells harboring wildtype FLT3 assessed as cell growth inhibition measured after 72 hrs by CCK8 assay; conditions: HL-60, 72 h
[23] = test system: HepG2; experiment: Antiproliferative activity human HepG2 cells assessed as cell growth inhibition measured after 72 hrs by CCK8 assay; conditions: HepG2, 72 h
[24] = test system: MV4-11; experiment: Induction of apoptosis in human MV4-11 cells assessed as early apoptotic cells at 0.1 uM measured after 48 hrs by Annexin V-FITC/PI double staining based flow cytometric analysis (reference value: 2.04 %); format: functional

IC50 [1]: 0.507 µM
IC50 [3]: 0.325 µM
inhibition [5]: Dde
inhibition [11]: Dde
inhibition [12]: Dde
IC50 [19]: > 10 µM
IC50 [22]: > 10 µM
IC50 [23]: > 10 µM
Structure (SMILES): C=CC(=O)Nc1ccc(NC(=O)Nc2ccc(-c3cc(C)nc4noc(N)c34)cc2)cc1
Activity [2]: 2.43%
Activity [4]: 5.47%
IC50 at 72 h [6]: > 10 µM
Activity [7]: 1.5%
Activity [8]: 14.58%
Activity [9]: 67.6%
viability at 0.5 µM [10]: 77.5%
viability at 0.1 µM [13]: 81.8%
Activity [14]: 83%
viability at 2.5 µM [15]: 53.9%
inhibition [16]: Dde
Activity [17]: 71.37%
Activity [18]: 4.51%
Activity [20]: 9.56%
Activity [21]: 11.88%
Activity [24]: 1.83%
